Test results taken from ChEMBL document CHEMBL1152245 (Bioorg Med Chem Lett, 2008).
Active and inactive are the calls of the source. The calls are words filed in the database; no cut-off is given here.

Key:
Type in all cases: functional
[1] = target: T1, Muscarinic acetylcholine receptor M1 (Homo sapiens, UniProt P11229); assay: Agonist activity at muscarinic M1 receptor
T1 sequence (P11229 whole entry): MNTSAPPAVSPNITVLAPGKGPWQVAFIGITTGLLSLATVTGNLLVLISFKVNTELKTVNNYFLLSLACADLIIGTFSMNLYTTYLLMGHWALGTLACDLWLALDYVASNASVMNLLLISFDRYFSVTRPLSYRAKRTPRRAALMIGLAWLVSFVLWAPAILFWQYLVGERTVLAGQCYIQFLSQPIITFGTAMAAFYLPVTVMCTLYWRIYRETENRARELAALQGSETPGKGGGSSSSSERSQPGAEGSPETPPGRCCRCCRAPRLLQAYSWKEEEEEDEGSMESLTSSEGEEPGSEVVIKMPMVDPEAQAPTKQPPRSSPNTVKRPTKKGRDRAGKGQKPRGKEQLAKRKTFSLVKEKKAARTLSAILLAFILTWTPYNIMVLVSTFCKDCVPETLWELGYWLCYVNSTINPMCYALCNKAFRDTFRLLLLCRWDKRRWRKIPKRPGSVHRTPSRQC

[2] = target: T2, Muscarinic acetylcholine receptor M1 (Homo sapiens) (UniProt P11229); assay: Agonist activity at muscarinic M1 receptor relative to carbachol
T2 sequence (whole entry): T1 sequence (P11229 whole entry)

[3] = target: T3, Muscarinic acetylcholine receptor M2 (Homo sapiens, UniProt P08172); assay: Agonist activity at muscarinic M2 receptor
T3 sequence (P08172 whole entry): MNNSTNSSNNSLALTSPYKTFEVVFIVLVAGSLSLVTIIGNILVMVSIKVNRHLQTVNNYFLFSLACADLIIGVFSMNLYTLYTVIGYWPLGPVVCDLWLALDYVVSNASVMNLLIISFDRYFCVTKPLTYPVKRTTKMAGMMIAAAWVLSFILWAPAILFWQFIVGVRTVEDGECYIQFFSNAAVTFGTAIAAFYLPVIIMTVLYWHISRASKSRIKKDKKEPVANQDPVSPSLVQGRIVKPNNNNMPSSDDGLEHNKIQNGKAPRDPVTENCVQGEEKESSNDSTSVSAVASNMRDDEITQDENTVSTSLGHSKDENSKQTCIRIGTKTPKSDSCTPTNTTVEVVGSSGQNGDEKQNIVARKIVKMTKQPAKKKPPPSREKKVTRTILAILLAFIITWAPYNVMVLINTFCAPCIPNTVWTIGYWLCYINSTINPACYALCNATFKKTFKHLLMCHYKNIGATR

[4] = target: T4, Muscarinic acetylcholine receptor M3 (Homo sapiens, UniProt P20309); assay: Agonist activity at muscarinic M3 receptor
Target sequence in this assay (P20309 whole entry): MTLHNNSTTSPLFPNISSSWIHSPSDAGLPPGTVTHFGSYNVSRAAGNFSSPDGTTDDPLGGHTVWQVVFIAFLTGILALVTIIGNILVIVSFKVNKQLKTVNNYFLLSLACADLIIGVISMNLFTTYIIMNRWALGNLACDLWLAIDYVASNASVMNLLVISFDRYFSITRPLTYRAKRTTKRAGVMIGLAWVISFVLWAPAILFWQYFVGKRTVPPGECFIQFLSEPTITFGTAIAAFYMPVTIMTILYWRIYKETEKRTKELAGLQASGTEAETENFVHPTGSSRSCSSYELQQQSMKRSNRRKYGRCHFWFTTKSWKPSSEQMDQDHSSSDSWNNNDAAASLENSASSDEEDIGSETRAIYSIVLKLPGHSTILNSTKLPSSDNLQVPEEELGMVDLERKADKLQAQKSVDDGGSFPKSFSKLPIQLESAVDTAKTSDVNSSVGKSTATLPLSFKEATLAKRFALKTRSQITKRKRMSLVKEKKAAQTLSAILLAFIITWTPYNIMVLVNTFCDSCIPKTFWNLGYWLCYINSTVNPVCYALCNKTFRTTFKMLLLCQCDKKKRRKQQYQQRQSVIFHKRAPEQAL

[5] = target: T5, Muscarinic acetylcholine receptor M4 (Homo sapiens, UniProt P08173); assay: Agonist activity at muscarinic M4 receptor
T5 sequence (P08173 whole entry): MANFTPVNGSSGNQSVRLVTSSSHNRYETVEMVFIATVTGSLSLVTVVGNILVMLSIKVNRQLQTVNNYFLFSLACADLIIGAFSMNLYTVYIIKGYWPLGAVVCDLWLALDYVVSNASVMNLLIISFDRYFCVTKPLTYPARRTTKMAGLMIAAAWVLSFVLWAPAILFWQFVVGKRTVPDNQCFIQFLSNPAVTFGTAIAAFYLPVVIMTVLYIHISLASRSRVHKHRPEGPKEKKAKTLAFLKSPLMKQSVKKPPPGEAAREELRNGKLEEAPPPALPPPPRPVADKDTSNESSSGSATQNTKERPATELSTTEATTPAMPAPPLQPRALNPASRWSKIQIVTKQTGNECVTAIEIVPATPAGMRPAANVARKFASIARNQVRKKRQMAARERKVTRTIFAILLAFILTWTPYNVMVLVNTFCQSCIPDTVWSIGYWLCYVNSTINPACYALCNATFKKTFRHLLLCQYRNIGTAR

[6] = target: T6, Muscarinic acetylcholine receptor M2 (Homo sapiens) (UniProt P08172); assay: Agonist activity at muscarinic M2 receptor at up to 30 uM
T6 sequence (whole entry): T3 sequence (P08172 whole entry)

[7] = target: T4, Muscarinic acetylcholine receptor M3; assay: Agonist activity at muscarinic M3 receptor at up to 30 uM
Target sequence in this assay (P20309 whole entry, looked up): as the sequence (P20309 whole entry) above

[8] = target: T7, Muscarinic acetylcholine receptor M4 (Homo sapiens) (UniProt P08173); assay: Agonist activity at muscarinic M4 receptor at up to 30 uM
T7 sequence (whole entry): T5 sequence (P08173 whole entry)

[9] = target: T8, Muscarinic acetylcholine receptor M5 (Homo sapiens) (UniProt P08912); assay: Agonist activity at muscarinic M5 receptor at up to 30 uM
T8 sequence (whole entry): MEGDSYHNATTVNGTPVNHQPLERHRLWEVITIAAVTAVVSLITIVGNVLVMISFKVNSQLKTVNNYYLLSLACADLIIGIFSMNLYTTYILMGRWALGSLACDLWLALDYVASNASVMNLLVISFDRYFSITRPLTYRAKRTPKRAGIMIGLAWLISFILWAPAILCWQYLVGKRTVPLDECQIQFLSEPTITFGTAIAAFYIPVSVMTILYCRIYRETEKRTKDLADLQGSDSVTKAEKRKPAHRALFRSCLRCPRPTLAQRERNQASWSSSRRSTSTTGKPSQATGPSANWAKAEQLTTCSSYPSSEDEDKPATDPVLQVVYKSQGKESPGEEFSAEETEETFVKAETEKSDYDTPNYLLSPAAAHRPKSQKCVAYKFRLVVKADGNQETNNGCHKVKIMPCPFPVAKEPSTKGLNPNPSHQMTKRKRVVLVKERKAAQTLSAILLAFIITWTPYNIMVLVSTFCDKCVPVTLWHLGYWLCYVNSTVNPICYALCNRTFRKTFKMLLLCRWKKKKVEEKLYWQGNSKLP

[10] = target: T6, Muscarinic acetylcholine receptor M2 (Homo sapiens); assay: Agonist activity at muscarinic M2 receptor relative to carbachol
[11] = target: T7, Muscarinic acetylcholine receptor M4 (Homo sapiens); assay: Agonist activity at muscarinic M4 receptor relative to carbachol
[12] = target: T9, Muscarinic acetylcholine receptor M5 (Homo sapiens, UniProt P08912); assay: Agonist activity at muscarinic M5 receptor
T9 sequence (P08912 whole entry): T8 sequence (whole entry)

[13] = target: T8, Muscarinic acetylcholine receptor M5 (Homo sapiens); assay: Agonist activity at muscarinic M5 receptor relative to carbachol
D(2) dopamine receptor = D(2) dopamine receptor (Homo sapiens, UniProt P14416); assay: Antagonist activity at dopamine D2 receptor
D(2) dopamine receptor, sequence (P14416 whole entry): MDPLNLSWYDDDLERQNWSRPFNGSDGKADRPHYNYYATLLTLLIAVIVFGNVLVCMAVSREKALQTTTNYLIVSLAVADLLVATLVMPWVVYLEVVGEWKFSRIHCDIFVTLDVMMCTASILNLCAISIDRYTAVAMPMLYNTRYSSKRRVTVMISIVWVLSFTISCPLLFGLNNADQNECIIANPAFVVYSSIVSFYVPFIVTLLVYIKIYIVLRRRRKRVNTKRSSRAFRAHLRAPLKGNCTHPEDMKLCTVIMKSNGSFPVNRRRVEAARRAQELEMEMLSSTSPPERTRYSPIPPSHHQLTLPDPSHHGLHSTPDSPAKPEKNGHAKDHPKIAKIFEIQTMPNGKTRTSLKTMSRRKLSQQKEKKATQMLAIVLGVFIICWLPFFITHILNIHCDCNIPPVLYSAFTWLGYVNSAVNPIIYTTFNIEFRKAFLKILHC

Compound	EC50 [1] [µM]	Activity [2] [%]	EC50 [3] [µM]	EC50 [4] [µM]	EC50 [5] [µM]	Activity [6]	Activity [7]	Activity [8]	Activity [9]	Activity [10] [%]	Activity [11] [%]	EC50 [12] [µM]	Activity [13] [%]	IC50 (D(2) dopamine receptor) [µM]
O=c1[nH]c2c(F)cccc2n1C1CCN(C2CCN(S(=O)(=O)c3ccccc3)CC2)CC1	2.6	49	> 30	> 30	> 30	–	–	–	–	–	–	–	–	–
Cc1ccccc1C(=O)N1CCC(N2CCC(n3c(=O)[nH]c4cc(Cl)ccc43)CC2)CC1	2.71	56	–	–	–	inactive	inactive	inactive	inactive	–	–	–	–	–
O=C(c1cccc(Cl)c1)N1CCC(N2CCC(n3c(=O)[nH]c4cc(Cl)ccc43)CC2)CC1	7.11	21	–	–	–	inactive	inactive	inactive	inactive	–	–	–	–	–
O=C(c1ccccc1C(F)(F)F)N1CCC(N2CCC(n3c(=O)[nH]c4cc(Cl)ccc43)CC2)CC1	11.1	24	–	–	–	inactive	inactive	inactive	inactive	–	–	–	–	–
Cc1ccccc1C(=O)N1CCC(N2CCC(n3c(=O)[nH]c4ccccc43)CC2)CC1	0.88	60	–	–	–	inactive	inactive	inactive	inactive	–	–	–	–	–
Cc1cccc(C(=O)N2CCC(N3CCC(n4c(=O)[nH]c5cc(Cl)ccc54)CC3)CC2)c1	2.11	50	–	–	–	inactive	inactive	inactive	inactive	–	–	–	–	–
O=c1[nH]c2cc(Br)ccc2n1C1CCN(C2CCN(S(=O)(=O)c3ccccc3)CC2)CC1	4.4	81	> 30	> 30	> 30	–	–	–	–	–	–	–	–	–
O=C(Nc1cccc(SC(F)(F)F)c1)N1CCC(N2CCC(n3c(=O)[nH]c4ccc(F)cc43)CC2)CC1	9.6	72	> 30	> 30	> 30	–	–	–	–	–	–	–	–	–
O=C(c1ccccc1C(F)(F)F)N1CCC(N2CCC(n3c(=O)[nH]c4ccccc43)CC2)CC1	0.91	32	–	–	–	inactive	inactive	inactive	inactive	–	–	–	–	–
O=C(Nc1cccc(SC(F)(F)F)c1)N1CCC(N2CCC(n3c(=O)[nH]c4ccccc43)CC2)CC1	6.5	85	> 30	> 30	> 30	–	–	–	–	–	–	–	–	–
O=C(c1cccc(Cl)c1)N1CCC(N2CCC(n3c(=O)[nH]c4ccccc43)CC2)CC1	0.93	21	–	–	–	inactive	inactive	inactive	inactive	–	–	–	–	–
O=C(Nc1cccc(SC(F)(F)F)c1)N1CCC(N2CCC(n3c(=O)[nH]c4cc(Cl)ccc43)CC2)CC1	3.6	90	> 30	> 30	> 30	–	–	–	–	–	–	–	–	–
NC(=O)OCCN1CCC(N2CCC(n3c(=O)[nH]c4ccccc43)CC2)CC1	–	–	0.0119	–	0.0091	–	–	–	–	80.6	96.9	0.0343	50.8	–
O=c1[nH]c2ccc(F)cc2n1C1CCN(C2CCN(S(=O)(=O)c3ccccc3)CC2)CC1	3.3	76	> 30	> 30	> 30	–	–	–	–	–	–	> 30	–	> 10
Cc1ccccc1CN1CCC(N2CCC(n3c(=O)[nH]c4ccccc43)CC2)CC1	–	–	–	–	–	–	–	–	–	–	–	–	–	5.1
Cc1cccc(C(=O)N2CCC(N3CCC(n4c(=O)[nH]c5ccccc54)CC3)CC2)c1	0.51	53	–	–	–	inactive	inactive	inactive	inactive	–	–	–	–	–
O=C(Nc1cccc(SC(F)(F)F)c1)N1CCC(N2CCC(n3c(=O)[nH]c4c(F)cccc43)CC2)CC1	> 10	46	> 30	> 30	> 30	–	–	–	–	–	–	–	–	–
O=c1[nH]c2cc(Cl)ccc2n1C1CCN(C2CCN(S(=O)(=O)c3ccccc3)CC2)CC1	4.1	82	> 30	> 30	> 30	–	–	–	–	–	–	–	–	–
O=c1[nH]c2ccccc2n1C1CCN(C2CCN(S(=O)(=O)c3ccccc3)CC2)CC1	1.4	82	–	–	–	–	–	–	–	–	–	–	–	–
O=c1[nH]c2ccccc2n1C1CCN(C2CCN(Cc3ccccc3C(F)(F)F)CC2)CC1	–	80	–	–	–	–	–	–	–	–	–	–	–	–
O=c1[nH]c2cc(F)ccc2n1C1CCN(C2CCN(S(=O)(=O)c3ccccc3)CC2)CC1	2.3	82	> 30	> 30	> 30	–	–	–	–	–	–	> 30	–	3.6
